Data from patent publication US20100029542A1, “PROTEIN STERILISATION BY RADIATION AND ADDITION OF A STABILISING COMPOSITION” (priority 2006, published 2010).
Where two headings read alike, the source gives them in different places.

Legend:
[1] = molecular target: T1, glucose oxidase (Aspergillus niger, UniProt P13006); experiment: Activity recovery of glucose oxidase in dry formulations following gamma irradiation; format: physicochemical; conditions: for Enzyme activity remaining after gamma-irradiation: glucose oxidase 350 μg mL^−1 prior to drying, dry, 25-40 kGy, ambient temperature
T1 construct: purchased Biocatalysts G575P
Protocol: (§1) In each example, an aqueous solution of a protein was prepared with selected additives in an Eppendorf tube or in a glass vial. Water was removed from the formulation by drying under a stream of nitrogen at 30° C. and subsequent incubation at atmospheric pressure in the presence of a dessicant. The Eppendorf tubes or the glass vials were sealed and delivered to an industrial sterilisation service for gamma irradiation, with a dose range typical for sterile medical products. The gamma-irradiated samples were reconstituted on their return and analysed for protein activity or structural integrity. The results were compared with those achieved using control (i.e. non-irradiated) samples.
(§2) The dry samples (approx. 20 μg in an Eppendorf tube) were gamma-irradiated by an industry-standard commercial sterilising service provided by Isotron PLC (Swindon, Wilts, UK), using a Cobalt 60 gamma source at ambient temperature. The radiation dose was in the range of 25-40 kGy.
(§3) The original solutions (i.e. solutions prior to drying) contained 350 μg mL^−1 of glucose oxidase and typically the total of 100 mM of protective compounds (i.e. 100 mM in case of a single compound, 50 mM+50 mM in case of two compounds, 33.3 mM+33.3 mM+33.3 mM in the case of three compounds etc.). The solutions were dried and gamma irradiated. Following the gamma irradiation, the samples, both pre- and post-gamma irradiated, were assayed for glucose oxidase activity. This was performed according to the following procedure:
Water was added to the sample to achieve 350 μg mL^−1 of glucose oxidase. 50 μL of the solution was added to 50 mL of deionised water. The following solutions were then added: • 10 mL of reagent mix (5 parts of 0.1 M sodium phosphate, pH 6+4 parts 2% w/w starch+1 part of 1 mg/mL lactoperoxidase enzyme); • 5 mL of 100 mM potassium iodide; and • 5 mL of 20% w/w glucose solution.
These were mixed together quickly. Time=0 was counted from the addition of the glucose. After 5 min, 1 ml of 5 M aq. hydrochloric acid was added to stop the reaction. The absorbance was then read at 630 nm using a Unicam UV-visible spectrophotometer (Type: Helios gamma). If the colour intensity was too great to allow an accurate reading, the sample was diluted with a defined volume of deionised water to bring the colour back on scale. The results were expressed as percentage recovery, by reference to the absorbance measured in the pre-gamma irradiation samples.

[2] = molecular target: T2, human growth hormone (Homo sapiens, UniProt P01241); experiment: Recovery of structural integrity of human growth hormone in dry formulations following gamma irradiation (HPLC); format: physicochemical; conditions: as excipient in the formulation, disulphide bridge, HPLC
T2 construct: purchased National Institute of Biological Standards and Control; further samples on prescription from a GP surgery

[3] = cited from earlier work; for Rate constant k: Table 1, singlet oxygen scavengers, measured in specified solvents
[4] = molecular target: T3, catalase (Bos taurus, UniProt P00432); experiment: Activity recovery of catalase in dry formulations following gamma irradiation; format: physicochemical, bovine; conditions: Table 6, singlet oxygen scavengers; catalase 100 μg mL^−1 prior to drying; dry; 25-40 kGy, ambient temperature
T3 construct: Catalase (from bovine liver, Sigma C9322, 2380 U /mg solid); purchased Sigma C9322; host or cells: bovine liver
T3 sequence (P00432 2-527 limits assumed): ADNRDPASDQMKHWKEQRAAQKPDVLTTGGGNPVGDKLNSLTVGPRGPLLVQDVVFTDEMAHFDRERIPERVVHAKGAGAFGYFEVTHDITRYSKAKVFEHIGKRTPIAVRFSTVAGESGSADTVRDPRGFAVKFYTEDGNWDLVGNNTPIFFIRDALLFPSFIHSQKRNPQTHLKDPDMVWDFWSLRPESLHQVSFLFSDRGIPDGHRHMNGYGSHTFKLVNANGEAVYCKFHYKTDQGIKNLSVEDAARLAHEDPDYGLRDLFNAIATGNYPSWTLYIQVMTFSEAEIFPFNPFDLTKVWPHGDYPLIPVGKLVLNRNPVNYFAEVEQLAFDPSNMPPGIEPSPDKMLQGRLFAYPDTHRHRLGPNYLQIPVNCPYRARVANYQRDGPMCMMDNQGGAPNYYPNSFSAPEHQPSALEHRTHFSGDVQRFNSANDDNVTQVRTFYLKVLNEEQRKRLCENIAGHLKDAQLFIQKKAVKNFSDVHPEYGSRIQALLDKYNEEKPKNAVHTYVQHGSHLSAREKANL
Protocol: as §1, §2
as §3, with “contained 100” for “contained 350”, “of catalase” for “of glucose oxidase”
Water was added to the sample to achieve 100 μg mL^−1 of catalase. 100 μL of the solution was added to a mixture of 18 mL of PBS and 2 mL of hydrogen peroxide (30 mM in water) in a 125 mL polypropylene pot and mixed. The resulting mixture was incubated at room temperature precisely for 30 min. In the meantime, the following reagents were mixed in a plastic cuvette for spectrophotometric measurements: • 2.73 mL of citrate/phosphate buffer (0.1 M, pH 5.0) • 100 μL of tetramethylbenzidine (TMB) (3 mg/mL, dissolved in dimethyl sulphoxide (DMSO)) • 100 μL of lactoperoxidase
Following the 30 min incubation period, 70 μL of the catalase containing mixture was added to the cuvette and absorbance was read in approximately 30 s. The results were expressed as percentage recovery, by reference to the absorbance measured in the fresh samples (i.e. prior to incubation at increased temperature).

[5] = molecular target: T2, human growth hormone; experiment: Recovery of structural integrity of human growth hormone in dry formulations following gamma irradiation (HPLC); format: physicochemical; conditions: Table 7, singlet oxygen scavengers, structural integrity by HPLC, human growth hormone 2.5 mg mL^−1 prior to drying, 25-40 kGy
Protocol: as §1, §2
Mobile phase was prepared by mixing 71 parts (by volume) of a solution of TRIS (0.05 M, in water adjusted with hydrochloric acid to a pH of 7.5) and 29 parts (by volume) of n-propylalcohol. The mobile phase was filtered prior to its use. The liquid chromatograph (Agilent 1100 series) was equipped with a 214 nm detector and a 4.6×250 mm column (Phenomenex 00G-4167-E0) packed with butylsilyl silica gel with a granulometry of 5 μm and a porosity of 30 nm, maintained at 45° C. The flow rate was maintained at 0.5 mL min^−1. 15 μL of aqueous samples of human growth hormone (typically 1-2.5 mg mL^−1) were injected. Results were expressed as % of peak area corresponding to the gamma irradiated sample with respect to that measured in non-irradiated sample.

[6] = tested on: Sandostatin; experiment: Recovery of structural integrity of Sandostatin in dry formulations following gamma irradiation (HPLC); format: physicochemical; conditions: Table 8, singlet oxygen scavengers, structural integrity by HPLC, excipient:Sandostatin weight ratio 10:1, 25-40 kGy
Protocol: as §1, §2
Mobile phase A was 0.1 M triethylamine adjusted to pH 2.3 with phosphoric acid. Mobile phase B was acetonitrile. The mobile phases were filtered prior to their use. The following linear gradient was used: time 0: 90% A+10% B; time 35 min: 60% A+40% B. The liquid chromatograph (Agilent 1100 series) was equipped with a 214 nm detector, guard column and a 4.6×150 mm C18 column with a granulometry of 5 μm and a porosity of 30 nm, maintained at ambient temperature. The flow rate was maintained at 1.0 mL min^−1. Injection volume was 50 μL (typically sandostatin at 200 μg mL^−1). Results were expressed as % of main peak area (i.e. area of the peak corresponding to intact sandostatin measured in the gamma irradiated sample with respect to that measured in non-irradiated sample of identical composition). A chromatogram of a standard solution of sandostatin was recorded after every 12 samples to ensure that no drift in the position of the major peak had occurred. The control measurements ruled out any ambiguity in interpreting the chromatograms.

T1 sequence (P13006 17-605): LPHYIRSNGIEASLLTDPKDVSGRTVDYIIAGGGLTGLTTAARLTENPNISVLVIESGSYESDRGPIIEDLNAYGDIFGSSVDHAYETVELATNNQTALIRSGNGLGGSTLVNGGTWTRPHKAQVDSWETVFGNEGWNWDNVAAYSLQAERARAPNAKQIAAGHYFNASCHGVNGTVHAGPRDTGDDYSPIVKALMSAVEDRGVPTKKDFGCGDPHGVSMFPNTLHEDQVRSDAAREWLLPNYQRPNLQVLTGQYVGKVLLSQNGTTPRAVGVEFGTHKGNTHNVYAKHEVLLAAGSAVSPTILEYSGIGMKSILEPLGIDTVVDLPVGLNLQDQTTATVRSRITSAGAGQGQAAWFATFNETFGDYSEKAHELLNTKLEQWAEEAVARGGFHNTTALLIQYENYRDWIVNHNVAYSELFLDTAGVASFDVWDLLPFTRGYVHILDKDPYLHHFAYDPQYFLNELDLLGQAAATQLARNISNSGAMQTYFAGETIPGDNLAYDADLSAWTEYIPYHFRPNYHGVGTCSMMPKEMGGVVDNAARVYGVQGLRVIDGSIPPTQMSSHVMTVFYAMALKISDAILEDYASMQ
T2 sequence (P01241 27-217): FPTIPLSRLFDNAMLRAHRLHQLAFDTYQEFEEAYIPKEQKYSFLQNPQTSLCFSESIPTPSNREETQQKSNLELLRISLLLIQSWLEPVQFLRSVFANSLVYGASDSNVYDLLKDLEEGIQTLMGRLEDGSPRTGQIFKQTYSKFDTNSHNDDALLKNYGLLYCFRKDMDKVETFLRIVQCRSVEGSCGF

| SMILES | Enzyme activity remaining after gamma-irradiation ([1]; Table 3, prior-art antioxidants, vs non-irradiated) | Compatibility of the compound with human growth hormone [2] | Compatibility of the compound with human growth hormone ([2]; listed as cysteine) | Rate constant k [3] | Enzyme activity remaining after gamma-irradiation ([1]; Table 5, singlet oxygen scavengers) | Enzyme activity remaining after gamma-irradiation [4] | Structural integrity remaining after gamma-irradiation (HPLC) [5] | Enzyme activity remaining after gamma-irradiation [6] | Rate of reaction with singlet oxygen ([3]; Table 5) | Rate of reaction with singlet oxygen ([3]; Table 6) | Rate of reaction with singlet oxygen ([3]; Table 7) | Rate of reaction with singlet oxygen ([3]; Table 8) | Compatibility of the compound with glucose oxidase ([1]; as excipient in the formulation) | Compatibility of the compound with human growth hormone ([2]; listed as N-acetylcysteine) |
| --- | --- | --- | --- | --- | --- | --- | --- | --- | --- | --- | --- | --- | --- | --- |
| N[C@@H](CS)C(=O)O [Cysteine] | 49.1% | **Compound was found incompatible with human growth hormone | incompatibility with human growth hormone | k = 5 × 10^7 L mol^−1 s^−1 | – | – | – | – | – | – | – | – | – | – |
| N[C@@H](Cc1c[nH]c2ccccc12)C(=O)O [Tryptophan] | – | – | – | k = 1.3 × 10^7 L mol^−1 s^−1 | 37.0% | 9.1% | 54.6% | 82.2% | 1.3e+07 M⁻¹ s⁻¹ | 1.3e+07 M⁻¹ s⁻¹ | 1.3e+07 M⁻¹ s⁻¹ | 1.3e+07 M⁻¹ s⁻¹ | – | – |
| CC(=O)N[C@@H](CS)C(=O)O [N-Acetylcysteine] | – | **Compound was found incompatible with human growth hormone | – | – | – | – | – | – | – | – | – | – | **Compound was found incompatible with glucose oxidase | incompatibility with human growth hormone |
